Measured values reported in patent publication US9533002B2, “Methods of treating a metabolic syndrome by modulating heat shock protein (HSP) 90-β” (Berg LLC, priority 2012, dated 2017).
“Also recorded” adds a separate entry of the source.

Tests used:
HSMM myotubes [1] = assay: Insulin signaling in HSMM myotubes: western blot of total and phosphorylated Akt, Erk, GSK3β; assay type: cell-based, human; settings: myotubes treated with inhibitor, then insulin stimulation
Procedure: Human skeletal muscle myoblasts (HSMM) were procured from PromoCell and were cultured in growth media recommended by the vendor. Confluent cultures were replaced with differentiation media (DMEM, 2% horse serum, pyruvate and HEPES) and cells allowed to differentiate for 7 to 10 days.
Human HSMM myotubes cells that were plated in 12 well plates the previous week were used. The media was aspirated and fresh media with appropriate dilutions of the NC and H3 siRNA for Hsp90 knockdown were added such that the final concentration in the wells of the plate was 100 nM. Mirus TKO transfection reagent was used for transfecting the cells. The plate was then incubated at 37° C. overnight.
The media was aspirated and the cells were washed off twice—first with warm PBS and second with 0.1% BSA containing growth media. The cells were then serum starved for 2-3 hours in 0.1% differentiation media containing the appropriate inhibitors at 37° C. followed by insulin stimulation for 5 minutes (0, 10, and 100 nM insulin).
The wells were then washed once with PBS and harvested into 100 μl of RIPA buffer containing protease and phosphatase inhibitors. The plate was placed on ice and, using a cell scraper, the cells were scraped from the plate. […]
Protein content was estimated by BCA assay and samples were prepared for gel electrophoresis and western blotting as described in subsequent sections. The total volume required to load 10 μg of total protein was calculated. […]
Visualization of proteins and quantification of western blots was performed as follows. […]
Each strip of membrane was taken out arranged in a clean flat surface. […] The bands were quantified using the BIORAD® software.
HSMM myotubes were sequentially (1) transfected with 3 different siRNAs targeting HSP90AB1 for 48 hours, (2) serum starved for 3 hours, and (3) subjected to stimulation of different concentrations of insulin (0, 10, 100 nM). Signaling events downstream of insulin stimulation were assessed by western blotting for levels of total and phosphorylated Akt, Erk, and GSK3β. […]

HSMM myotubes [2] = assay: Seahorse bioenergetic profiling of myotubes (OCR; oligomycin, CCCP, rotenone); assay type: cell-based, human
Procedure: HSMM myotubes cultured in wells in a Seahorse® assay cartridge were differentiated with 2% horse serum myocyte differentiation media for 7 days. Cells were transfected with either negative control scrambled siRNA or siHsp siRNA with TKO transfection reagents at concentration of 50 nM following vendor instructions as described above (Mirus Bio®). After 48 hours transfection, cells were subjected to Seahorse® bioenergetics analysis using drugs to modulate cell energetics, i.e., oligomycin, carbonyl cyanide-M-chlorophenyl hydrazine (CCCP), and rotenone. Oligomycin inhibits mitochondrial ATP synthase (complex V of ET chain) and allows analysis of glycolytic capacity. CCCP is an uncoupler that […] the mitochondrial membrane, thereby inducing maximum compensatory oxygen consumption, and allows analysis of uncoupled OCR. Rotenone inhibits NADH dehydrogenase (complex I of ET chain) and allows analysis of non-mitochondrial OCR.
To perform the assay, each well of the Seahorse® assay cartridge was washed with 1 ml running media. 500 ul of running media was added to each well and the plate was placed in an 37° C. (CO2 free) incubator. Drugs to modulate mitochondrial activity were prepared at a 10× (10 uM) concentration, so that after addition to the cartridge, the final concentration would be 1× (1 μM). Oligomycin (50 ul), CCCP (55 ul) and rotenone (55 ul) were added to ports A, B, and C of the cartridge and the cartridge was placed back in the incubator. The Seahorse® assay wizard was opened and the cycle parameters and times were setup. The Seahorse® assay was then performed using the instrument. After the Seahorse® assay, cells were lysed with 50 ul 450 mM NaOH and then neutralized with 5 ul Tris 6.8. DNA lysates were subjected to spectrophotometric analysis at OD260 using BioTek® Take3 DNA plate reader. The data were normalized with DNA contents of the cells.
HSMM myotubes were transfected with siRNA of either control or siHsp90β for 48 hours as described above, then subjected to Seahorse® bioenergetic profiling (XF24 Analyzer) using different mitochondrial drugs including oligomycin, CCCP, and rotenone; and monitored changes on oxygen consumption rate (OCR) that reflects either basal or maximum mitochondrial oxidative capacity. The results were normalized by DNA content.

[3] = myotubes treated at different concentrations

CCc1cc(-c2n[nH]c(C)c2-c2ccc3c(c2)OCCO3)c(O)cc1O [CCT018159]
level of pERK (HSMM myotubes [1]): no change; also recorded: No significant changes | level of pGSK3β (HSMM myotubes [1]): no change; also recorded: No significant changes | insulin stimulated phosphorylation of Akt (phospho-AKT) (HSMM myotubes [1]; higher concentration, 10 uM, vs untreated cultures): significantly enhanced; also recorded: increase | CCCP induced uncoupling response on mitochondrial metabolism (HSMM myotubes [2]; 1 μM, 3 μM, and 10 μM (FIG. 10 legend)): did not have a significant effect | CCCP induced OCR (HSMM myotubes [2]; 10 uM): greater suppression | uncoupled OCR (HSMM myotubes [2]; lower concentration, 1 μM): increased | basal OCR (HSMM myotubes [2]; [3]): no observed change | uncoupled OCR (CCCP induced) (HSMM myotubes [2]; [3]): decreased in a concentration dependent manner
